# Results taken from publication PMC8781550, “The Effect of pH and Sodium Caseinate on the Aqueous Solubility, Stability, and Crystallinity of Rutin towards Concentrated Colloidally Stable Particles for the Incorporation into Functional Foods” (Molecules, 2022).
# How the values were obtained:
# [1] = Aqueous solubility (recovery) of rutin at various pH (centrifugation, HPLC of supernatant); assay type: physicochemical
# Description: Rutin was mixed with Milli-Q® (MilliporeSigma, Burlington, MA, USA) water at various concentrations (0.01 to 10% w/v) and the pH of the mixtures increased gradually (while stirring at 300 rpm) until the full dissolution was achieved. […] Then, the pH was increased further until the complete dissolution. […] Samples were taken at each pH point (i.e., pH 1–11) and at each concentration of rutin.
# In order to determine the optimum amount of both rutin and NaCas to achieve the best loading, various concentrations of rutin (0.01–4% w/v) were dissolved in a solution of NaCas (0.2–8% w/v) at pH 11, which was then acidified down to pH 6, where the precipitates were formed. A duration of 15 min between each pH adjustment was allowed, and samples were taken along the process at every pH point (i.e., pH 11, 9, 8, 7, and 6; pH below 6 was not considered as the sample withdrawal was not practical due to the co-precipitation of NaCas and rutin). The withdrawn samples were left for 30 min for the complete formation of the possible precipitates. Each sample was then divided into two equal parts; the first part was centrifuged (3000× g, 20 °C, 10 min) in the Amicon Ultra-15 Centrifugal Filter Units containing a cellulose membrane with a molecular weight cut-off of […] (Ultracel-100K, Millipore, Burlington, MA, USA) to remove both precipitates and colloidally stable complexes, while the second part was simply filtered using a 0.45 µm membrane (Millipore) to remove the precipitates only. The concentration of rutin in the ultrafiltrates, as well as the filtrates (the second part), was determined using HPLC analysis, and the rutin recovery% was calculated correspondingly. As the control, the same concentration of rutin (1%) was also treated and analysed the same way as the rutin–NaCas mixture. In this study, for simplicity, the recovery % of rutin is referred to as its solubility.
# [2] = Chemical stability of rutin at alkaline pH (HPLC); assay type: physicochemical; details: rutin 1% w/v dissolved at pH 11.0 and kept for 30 min
# [3] = parameters: method as in doi:10.1016/j.foodhyd.2019.05.032; details: cited from earlier work
# [4] = cited from earlier work
# [5] = parameters: method as in PMID 25496805, PMID 20201551; details: cited from earlier work
# [6] = Crystallinity of dried rutin at each pH (XRD); assay type: physicochemical
# Description: To study the crystallinity of rutin at each pH, samples of rutin at each pH were stored in a desiccator with silica beads (25 °C) to dry and crystallize. The dried materials were ground using a mortar and pestle and then were analysed for the degree of crystallinity at 20.0 °C using a Rigaku Rapid image-plate detector (Rigaku, The Woodlands, TX, USA) set at 127.40 mm. The Cu Kα radiation (λ = 1.540562 Å) was generated by a Rigaku MicroMax007 microfocus (rotating anode generator; Rigaku, The Woodlands, TX, USA) and an Osmic-Rigaku metal multi-layer optic device (Rigaku, USA) was used for focusing and monochromation. Samples were mounted in Hampton CryoLoops (Hampton Research, Aliso Viejo, CA, USA), and data collection was under the control of RAPID II software (Version 2.4.2, Rigaku, USA). The data were background corrected and converted to a line profile with 2DP programme (Version 1.0.3.4, Rigaku, USA), and the resulting diffractograms were compared using CrystalDiffract software (Version 6.5.5, CrystalMaker Software Ltd., Oxfordshire, UK). A 2θ angle range of 5° to 100° was used for the analysis of all the samples.
structure (smiles),measurement,setting,value
C[C@@H]1O[C@@H](OC[C@H]2O[C@@H](Oc3c(-c4ccc(O)c(O)c4)oc4cc(O)cc(O)c4c3=O)[C@H](O)[C@@H](O)[C@@H]2O)[C@H](O)[C@H](O)[C@H]1O [rutin],Aqueous solubility of rutin,"[1]; 0.01% w/v rutin in water, regardless of the pH",most of the rutin was soluble
same,Aqueous solubility (recovery): fraction of rutin soluble,"[1]; dispersion containing 5% rutin, pH 9",about 90%
same,Concentration of rutin that could be dissolved,[1]; pH 11.0,10 % (w/v)
same,Solubility (recovery) of rutin,"[1]; pH < 6, 1% w/v rutin, regardless of association with NaCas",almost all rutin was precipitated
same,Decrease in initial concentration of rutin (chemical stability),[2],~10%
same,Solubility in ethanol,[3],about 4 % w/v
same,Decomposition of rutin,"[4]; 0.2 M NaOH, with or without beta-cyclodextrin",slow decomposition
same,Rutin concentration remaining,"[4]; after 5 h, pH constantly adjusted to 8",approximately 20%
same,Rutin concentration,[4]; weak acidic conditions (pH 5),remained almost unchanged
same,logP,[5],0.15
same,Crystallinity of dried rutin particles (XRD),[6]; pH 11 and 10,amorphous
same,Crystallinity of dried rutin particles (XRD),[6]; pH < 8,crystalline form
same,Crystallinity of dried rutin particles (XRD),[6]; pH close to 1.0,crystalline rutin was not present
